Results on 17 compounds are retold here after ChEMBL document CHEMBL3132750, “4-Chlorocolchicine derivatives bearing a thiourea side chain at the C-7 position as potent anticancer agents” (Medchemcomm, 2014).

One assay deals with HCT-116. Description: Cytotoxicity against human HCT116 cells assessed as inhibition of cell proliferation after 96 hrs. The class given is functional, cell-based. The following applies: HCT-116, 96 h.
What is called IC50 is the point on the concentration scale where inhibition reaches its midpoint. With `COc1c(Cl)c2c(c(OC)c1OC)-c1ccc(OC)c(=O)cc1[C@@H](NC(=S)Nc1nccs1)CC2`, the IC50 worked out at 0.0065 µM.

For the compound `COc1c(Cl)c2c(c(OC)c1OC)-c1ccc(OC)c(=O)cc1[C@@H](NC(=O)NC(C)C)CC2`, the IC50 amounted to 0.189 µM.

Regarding `CNC(=S)N[C@H]1CCc2c(Cl)c(OC)c(OC)c(OC)c2-c2ccc(OC)c(=O)cc21`, the IC50 came to 0.0063 µM.

In the case of `COc1c(Cl)c2c(c(OC)c1OC)-c1ccc(OC)c(=O)cc1[C@@H](NS(C)(=O)=O)CC2`, the IC50 is 0.0369 µM.

`COc1c(Cl)c2c(c(OC)c1OC)-c1ccc(OC)c(=O)cc1[C@@H](NC(=S)N(C)CCO)CC2`: the IC50 was 0.0326 µM.

For the compound `COc1c(Cl)c2c(c(OC)c1OC)-c1ccc(OC)c(=O)cc1[C@@H](NS(=O)(=O)c1ccccc1)CC2`, the IC50 was 0.0258 µM.

Take `COc1c(Cl)c2c(c(OC)c1OC)-c1ccc(OC)c(=O)cc1[C@@H](NC(=S)Nc1ncnn1C)CC2`: the IC50 was 0.0339 µM.

Regarding `COc1c(Cl)c2c(c(OC)c1OC)-c1ccc(OC)c(=O)cc1[C@@H](NC(=S)Nc1ncn(C)n1)CC2`, the IC50 amounted to 0.0088 µM.

Consider `COc1c(Cl)c2c(c(OC)c1OC)-c1ccc(OC)c(=O)cc1[C@@H](NC(=S)Nc1cccc(C#N)c1)CC2`, for which the IC50 stood at 0.0253 µM.

Consider `CCNC(=O)N[C@H]1CCc2c(Cl)c(OC)c(OC)c(OC)c2-c2ccc(OC)c(=O)cc21`, for which the IC50 was 0.134 µM.

For the compound `COc1c(Cl)c2c(c(OC)c1OC)-c1ccc(OC)c(=O)cc1[C@@H](NC(=S)Nc1ccccc1)CC2`, the IC50 was 0.0012 µM.

With `COc1c(Cl)c2c(c(OC)c1OC)-c1ccc(OC)c(=O)cc1[C@@H](NC(N)=S)CC2`, the IC50 is 0.009 µM.

Consider `COc1c(Cl)c2c(c(OC)c1OC)-c1ccc(OC)c(=O)cc1[C@@H](NC(=S)Nc1cnccn1)CC2`, for which the IC50 came out at 0.033 µM.

As for `CCCNC(=S)N[C@H]1CCc2c(Cl)c(OC)c(OC)c(OC)c2-c2ccc(OC)c(=O)cc21`, the IC50 turned out to be 0.0043 µM.

For `COc1c(Cl)c2c(c(OC)c1OC)-c1ccc(OC)c(=O)cc1[C@@H](NC(=O)N(C)C)CC2`, the IC50 is 0.0504 µM.

For `COc1c(Cl)c2c(c(OC)c1OC)-c1ccc(OC)c(=O)cc1[C@@H](NC(=S)N(C)C)CC2`, the concentration for half-maximal inhibition (IC50) stood at 0.0084 µM.

As to `COc1c(Cl)c2c(c(OC)c1OC)-c1ccc(OC)c(=O)cc1[C@@H](NC(=S)Nc1ccccc1C#N)CC2`, the IC50 was found to be 2.2 µM.

The next assay has as its system HT-29. Briefly: Cytotoxicity against human HT-29 cells assessed as inhibition of cell proliferation after 96 hrs. The following applies: HT-29, 96 h. Format: functional, cell-based.
Turning to `COc1c(Cl)c2c(c(OC)c1OC)-c1ccc(OC)c(=O)cc1[C@@H](NC(=S)Nc1nccs1)CC2`, the IC50 is 0.0011 µM.

With `COc1c(Cl)c2c(c(OC)c1OC)-c1ccc(OC)c(=O)cc1[C@@H](NC(=O)NC(C)C)CC2`, the IC50 was determined as 0.181 µM.

As for `CNC(=S)N[C@H]1CCc2c(Cl)c(OC)c(OC)c(OC)c2-c2ccc(OC)c(=O)cc21`, the IC50 is 0.0028 µM.

With `COc1c(Cl)c2c(c(OC)c1OC)-c1ccc(OC)c(=O)cc1[C@@H](NS(C)(=O)=O)CC2`, the IC50 worked out at 0.0386 µM.

Consider `COc1c(Cl)c2c(c(OC)c1OC)-c1ccc(OC)c(=O)cc1[C@@H](NC(=S)N(C)CCO)CC2`, for which the IC50 amounted to 0.0304 µM.

With `COc1c(Cl)c2c(c(OC)c1OC)-c1ccc(OC)c(=O)cc1[C@@H](NS(=O)(=O)c1ccccc1)CC2`, the IC50 was 0.0087 µM.

Consider `COc1c(Cl)c2c(c(OC)c1OC)-c1ccc(OC)c(=O)cc1[C@@H](NC(=S)Nc1ncnn1C)CC2`, for which the IC50 was determined as 0.018 µM.

As for `COc1c(Cl)c2c(c(OC)c1OC)-c1ccc(OC)c(=O)cc1[C@@H](NC(=S)Nc1ncn(C)n1)CC2`, the IC50 was 0.006 µM.

`COc1c(Cl)c2c(c(OC)c1OC)-c1ccc(OC)c(=O)cc1[C@@H](NC(=S)Nc1cccc(C#N)c1)CC2`: the IC50 is 0.0067 µM.

Take `CCNC(=O)N[C@H]1CCc2c(Cl)c(OC)c(OC)c(OC)c2-c2ccc(OC)c(=O)cc21`: the IC50 turned out to be 0.0818 µM.

Turning to `COc1c(Cl)c2c(c(OC)c1OC)-c1ccc(OC)c(=O)cc1[C@@H](NC(=S)Nc1ccccc1)CC2`, the IC50 came out at 0.0004 µM.

In the case of `COc1c(Cl)c2c(c(OC)c1OC)-c1ccc(OC)c(=O)cc1[C@@H](NC(N)=S)CC2`, the IC50 turned out to be 0.0061 µM.

Regarding `COc1c(Cl)c2c(c(OC)c1OC)-c1ccc(OC)c(=O)cc1[C@@H](NC(=S)Nc1cnccn1)CC2`, the IC50 is 0.0194 µM.

With `CCCNC(=S)N[C@H]1CCc2c(Cl)c(OC)c(OC)c(OC)c2-c2ccc(OC)c(=O)cc21`, the IC50 was found to be 0.0016 µM.

In the case of `COc1c(Cl)c2c(c(OC)c1OC)-c1ccc(OC)c(=O)cc1[C@@H](NC(=O)N(C)C)CC2`, the IC50 turned out to be 0.0532 µM.

Turning to `COc1c(Cl)c2c(c(OC)c1OC)-c1ccc(OC)c(=O)cc1[C@@H](NC(=S)N(C)C)CC2`, the IC50 worked out at 0.0088 µM.

As to `COc1c(Cl)c2c(c(OC)c1OC)-c1ccc(OC)c(=O)cc1[C@@H](NC(=S)Nc1ccccc1C#N)CC2`, the IC50 is 0.866 µM.

The subject of another assay is A549. Description: Cytotoxicity against human A549 cells assessed as inhibition of cell proliferation after 96 hrs. The following applies: A549, 96 h. The class given is functional, cell-based.
In the case of `COc1c(Cl)c2c(c(OC)c1OC)-c1ccc(OC)c(=O)cc1[C@@H](NC(=S)Nc1nccs1)CC2`, the IC50 came out at 0.0101 µM.

As to `COc1c(Cl)c2c(c(OC)c1OC)-c1ccc(OC)c(=O)cc1[C@@H](NC(=O)NC(C)C)CC2`, the IC50 stood at 0.289 µM.

Turning to `CNC(=S)N[C@H]1CCc2c(Cl)c(OC)c(OC)c(OC)c2-c2ccc(OC)c(=O)cc21`, the IC50 came out at 0.0109 µM.

Turning to `COc1c(Cl)c2c(c(OC)c1OC)-c1ccc(OC)c(=O)cc1[C@@H](NS(C)(=O)=O)CC2`, the IC50 came to 0.0454 µM.

For `COc1c(Cl)c2c(c(OC)c1OC)-c1ccc(OC)c(=O)cc1[C@@H](NC(=S)N(C)CCO)CC2`, the IC50 was 0.0449 µM.

Turning to `COc1c(Cl)c2c(c(OC)c1OC)-c1ccc(OC)c(=O)cc1[C@@H](NS(=O)(=O)c1ccccc1)CC2`, the IC50 came to 0.0368 µM.

With `COc1c(Cl)c2c(c(OC)c1OC)-c1ccc(OC)c(=O)cc1[C@@H](NC(=S)Nc1ncnn1C)CC2`, the IC50 is 0.0403 µM.

Consider `COc1c(Cl)c2c(c(OC)c1OC)-c1ccc(OC)c(=O)cc1[C@@H](NC(=S)Nc1ncn(C)n1)CC2`, for which the IC50 came to 0.0348 µM.

As to `COc1c(Cl)c2c(c(OC)c1OC)-c1ccc(OC)c(=O)cc1[C@@H](NC(=S)Nc1cccc(C#N)c1)CC2`, the IC50 was determined as 0.126 µM.

Turning to `CCNC(=O)N[C@H]1CCc2c(Cl)c(OC)c(OC)c(OC)c2-c2ccc(OC)c(=O)cc21`, the IC50 worked out at 0.247 µM.

Take `COc1c(Cl)c2c(c(OC)c1OC)-c1ccc(OC)c(=O)cc1[C@@H](NC(=S)Nc1ccccc1)CC2`: the IC50 came to 0.0244 µM.

Turning to `COc1c(Cl)c2c(c(OC)c1OC)-c1ccc(OC)c(=O)cc1[C@@H](NC(N)=S)CC2`, the IC50 was 0.045 µM.

Regarding `COc1c(Cl)c2c(c(OC)c1OC)-c1ccc(OC)c(=O)cc1[C@@H](NC(=S)Nc1cnccn1)CC2`, the IC50 amounted to 0.0374 µM.

Regarding `CCCNC(=S)N[C@H]1CCc2c(Cl)c(OC)c(OC)c(OC)c2-c2ccc(OC)c(=O)cc21`, the IC50 stood at 0.0099 µM.

On to `COc1c(Cl)c2c(c(OC)c1OC)-c1ccc(OC)c(=O)cc1[C@@H](NC(=O)N(C)C)CC2`, for which the IC50 came to 0.192 µM.

With `COc1c(Cl)c2c(c(OC)c1OC)-c1ccc(OC)c(=O)cc1[C@@H](NC(=S)N(C)C)CC2`, the IC50 stood at 0.0107 µM.

Regarding `COc1c(Cl)c2c(c(OC)c1OC)-c1ccc(OC)c(=O)cc1[C@@H](NC(=S)Nc1ccccc1C#N)CC2`, the IC50 stood at 3.79 µM.
